In US9266872B2, “2-hydroxyarylamide derivative or pharmaceutically acceptable salt thereof, preparation method thereof, and pharmaceutical composition for preventing or treating cancer containing same as active ingredient” (KOREA RESEARCH INSTITUTE OF BIOSCIENCE AND BIOTECHNOLOGY, priority 2011, dated 2016):
Like-named read-outs stand apart in the source and are kept apart here.

Columns and labels:
[1] = target: T1, TMPRSS4 serine protease (Homo sapiens, UniProt Q9NRS4); test: Inhibitory effect on TMPRSS4 serine protease activity using peptide substrate; assay type: biochemical; settings: kallikrein peptide substrate 100 μM, DMSO negative control; for Intracellular protease activity Inhibition % 10 uM / inhibition at 10 µM: 10 uM compound; for inhibition at 10 µM: read-out: Intracellular protease activity Inhibition % 10 uM; for inhibition at 30 µM: read-out: Intracellular protease activity Inhibition % 30 uM; for inhibition at 100 µM: 100 uM compound, read-out: Intracellular protease activity Inhibition % 100 uM
T1 construct: TMPRSS4 serine protease domain (205th Val˜437th Leu) was cloned in pET21b/NdeI-XhoI; inferred from pET21b XhoI cloning and Ni-NTA purification) (C); made in house; host or cells: E. coli BL21 (DE3)
Procedure: TMPRSS4 serine protease domain (205th Val˜437th Leu) was cloned in pET21b/NdeI-XhoI, which was introduced in E. coli BL21 (DE3). At this time, FlagX2-enterokinase cleavage site ([…]; total 15 amino acids) was inserted in N-terminal of TMPRSS4 serine protease domain as shown in FIG. 1. The forward and reverse primers for PCR used for the cloning were presented by SEQ. ID. NO: 1 and NO: 2.
The cells were cultured in 10 ml of LB containing ampicillin at 37° C. overnight. IL of LB+ampicillin was added thereto, followed by further culture until OD reached 0.6˜0.8. 0.1 mM IPTG was added thereto, followed by further culture for 16 hours. Cell pellet was obtained, purified by Ni-NTA (Qiagen), and dialyzed. TMPRSS4 serine protease (pro-form) labeled with 2 mg of 2Xflag-enterokinase cleavage site was conjugated to Ni-NTA resin (4°, overnight). Enterokinase (NEB) was treated thereto at the concentration of 0.0002%/w/w at room temperature for 5 hours. The sample was washed, eluted with 50 mM imidazole in 20 mM of sodium phosphate buffer, and then dialyzed.
The protein activity was evaluated by measuring fluorescence shown during hydrolysis of the peptide. […] Reaction was induced after adding 100 μM of the peptide substrate into reaction buffer (50 mM Tris-HCl (pH 8.0), 10 mM CaCl2, 1 μM ZnCl2). Then, fluorescence was measured at 5 minutes interval (excitation 385 nm, emission 455 nm).
Then, fluorescence (excitation 385 nm/emission 455 nm) was measured at 5 minutes interval for 150 minutes. […] Dimethylsulfoxide (DMSO) was used as the negative control.

[2] = test system: TMPRSS4 over-expressing colorectal cancer cell line SW480; test: Inhibitory effect on infiltration of cancer cells over-expressing TMPRSS4 (matrigel trans-well); assay type: cell-based; settings: Homo sapiens, read-out: Inhibition rate of target-expressing colorectal cancer cell activity (%, 0.1~2 uM)
Procedure: The cells were distributed in a 6-well plate at the density of 3×10^5 cells/well, followed by transfection. 48 hours later, the medium was replaced with a selection medium (800 μg/ml G418 medium). G418-resistant clone was separated, followed by culture for 2 weeks, during which selection was performed.
The cancer cell line constructed in step 1 was distributed in a 24-well trans-well plate (8 μm pore size; Costar, USA) whose porous membrane was coated with 100 μl of matrigel (BD Biosciences, USA) diluted with serum-free medium at the concentration of 250 μg/ml, which stood at room temperature for 1 hour for solidification. Lower chamber of the trans-well plate was coated with 100 μl of collagen type I (Sigma) at the concentration of 20 μg/ml. […] While culturing the cells in a 37, 5% CO2 incubator for 48 hours, cell migration from the upper chamber to lower chamber was allowed. […] The excessive crystal violet solution was washed away with distilled water. The migrated cell number was counted from 5 randomly selected areas (×200). The experiment was repeated at least twice under the same condition, and the representative result was presented.
The inhibitory effect of each compound on the infiltration of TMPRSS4 over-expressing colorectal cancer cell line SW480 was calculated by Mathematical Formula 1, which presents the number of infiltrated cells with % by the number of infiltrated cells in the negative control treated with DMSO. Infiltration Inhibition Rate (%)=100−Infiltrated cell number with the treatment of each compound/Infiltrated cell number with the treatment of DMSO×100 [Mathematical Formula 1]

[3] = SW480 over-expressing TMPRSS4, 48 hours
[4] = 2 uM, SW480 over-expressing TMPRSS4, 48 hours

T1 sequence (Q9NRS4 205-437): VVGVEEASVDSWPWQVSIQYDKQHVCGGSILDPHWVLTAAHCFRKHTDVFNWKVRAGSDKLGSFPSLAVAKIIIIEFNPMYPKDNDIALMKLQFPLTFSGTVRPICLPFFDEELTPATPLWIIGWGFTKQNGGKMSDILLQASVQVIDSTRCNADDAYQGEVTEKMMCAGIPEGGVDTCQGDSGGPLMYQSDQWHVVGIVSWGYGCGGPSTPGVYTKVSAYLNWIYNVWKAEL

Question: What does the source list for O=C(Nc1ccc(C(F)(F)F)cc1[N+](=O)[O-])c1cc(Cl)ccc1O [Example 36, 5-chloro-2-hydroxy-N-(2-nitro-4-trifluoromethyl-phenyl)-benzamide]?
Answer: Intracellular protease activity Inhibition % 10 uM [1]: 53%; inhibition at 10 µM [1]: 51 to 100%; inhibition at 0.8 µM [2, 3]: 76%

Question: With O=C(Nc1cnc2ccccc2c1)c1cc(Cl)ccc1O [Example 25, 5-chloro-2-hydroxy-N-quinoline-3-yl-benzamide] as the compound, how does the inhibition at 30 µM ([1]; 30 uM compound) read?
Answer: The inhibition at 30 µM was 8%.

Question: And the inhibition at 100 µM [1]?
Answer: Its inhibition at 100 µM is 75%.

Question: And the inhibition at 25 µM ([2]; 25 uM, SW480 over-expressing TMPRSS4, 48 hours)?
Answer: The inhibition at 25 µM was 51%.

Question: O=C(Nc1cc(C(F)(F)F)cc(C(F)(F)F)c1)c1cc2ccccc2cc1O [Example 8, N-(3,5-bis(trifluoromethyl)phenyl)-2-hydroxy-3-naphthaamide] was tested. Which “Intracellular protease activity Inhibition % 10 uM” value [1] did it give?
Answer: The value was 58%.

Question: What about the inhibition at 10 µM [1] of the same compound?
Answer: Its inhibition at 10 µM is 51 to 100%.

Question: What about the inhibition at 30 µM ([1]; 30 uM compound) of the same compound?
Answer: Its inhibition at 30 µM is 96%.

Question: And the inhibition at 0.8 µM [2, 3]?
Answer: Its inhibition at 0.8 µM is 72%.

Question: N#Cc1ccc(NC(=O)c2cc(Cl)ccc2O)c(Cl)c1 [Example 27, 5-chloro-N-(2-chloro-4-cyano-phenyl)-2-hydroxy-benzamide] was tested. Which inhibition at 30 µM ([1]; 30 uM compound) did it give?
Answer: The inhibition at 30 µM was 92%.

Question: And the inhibition at 100 µM [1]?
Answer: Its inhibition at 100 µM is 100%.

Question: What about the inhibition at 2 µM [2, 4] of the same compound?
Answer: The inhibition at 2 µM was 54%.

Question: Which results are given for N#Cc1ccc(NC(=O)c2cc(Cl)ccc2O)nc1 [Example 37, 5-chloro-N-(5-cyano-pyridine-2-yl)-2-hydroxy-benzamide]?
Answer: inhibition at 10 µM [1]: 26%; Intracellular protease activity Inhibition % 30 uM ([1]; 30 uM compound): 63%; inhibition at 30 µM ([1]; 30 uM compound): 47 to 100%; inhibition at 5 µM ([2]; 5 uM, SW480 over-expressing TMPRSS4, 48 hours): 44%

Question: Which results are given for O=C(Nc1cc(Br)cc(C(F)(F)F)c1)c1cc(Cl)ccc1O [Example 22, N-(3-bromo-5-(trifluoromethyl)phenyl)-5-chloro-2-hydroxybenzamide]?
Answer: Intracellular protease activity Inhibition % 10 uM [1]: 64%; inhibition at 10 µM [1]: 51 to 100%; inhibition at 30 µM ([1]; 30 uM compound): 100%; inhibition at 100 µM [1]: 100%; inhibition at 0.1 µM [2, 3]: 43%

Question: Which “Intracellular protease activity Inhibition % 10 uM” value [1] does the source give for COc1cc(NC(=O)c2cc(Cl)ccc2O)cc(C(F)(F)F)c1 [Example 6, 5-chloro-2-hydroxy-N-(3-methoxy-5-(trifluoromethyl)phenyl)benzamide] here?
Answer: The value was 67%.

Question: And the inhibition at 10 µM [1]?
Answer: The inhibition at 10 µM was 51 to 100%.

Question: What about the inhibition at 30 µM ([1]; 30 uM compound) of the same compound?
Answer: The inhibition at 30 µM was 88%.

Question: And the inhibition at 100 µM [1]?
Answer: Its inhibition at 100 µM is 99%.

Question: And the inhibition at 0.8 µM [2, 3]?
Answer: Its inhibition at 0.8 µM is 49%.

Question: N#Cc1ccc(NC(=O)c2cc(Cl)ccc2O)cc1C(F)(F)F [Example 19, 5-chloro-N-(4-cyano-3-(trifluoromethyl)phenyl)-2-hydroxybenzamide] was tested. Which inhibition at 30 µM ([1]; 30 uM compound) did it give?
Answer: Its inhibition at 30 µM is 88%.

Question: What about the inhibition at 100 µM [1] of the same compound?
Answer: Its inhibition at 100 µM is 100%.

Question: And the inhibition at 2 µM ([2]; SW480, 48 h)?
Answer: Its inhibition at 2 µM is 81%.

Question: Which inhibition at 30 µM ([1]; 30 uM compound) does the source give for O=C(Nc1nc(-c2ccccc2)cs1)c1cc(Cl)ccc1O [Example 53, 5-chloro-2-hydroxy-N-(4-phenylthiazole-2-yl)benzamide] here?
Answer: Its inhibition at 30 µM is 91%.

Question: And the inhibition at 100 µM [1]?
Answer: The inhibition at 100 µM was 98%.

Question: And the inhibition at 0.1 µM [2, 3]?
Answer: The inhibition at 0.1 µM was 34%.

Question: And the inhibition at 1 µM ([2]; 1 uM, SW480 over-expressing TMPRSS4, 48 hours)?
Answer: The inhibition at 1 µM was 56%.

Question: O=C(Nc1ccc(Cl)c(C(F)(F)F)c1)c1cc(Cl)ccc1O [Example 32, 5-chloro-N-(4-chloro-3-(trifluoromethyl)phenyl)-2-hydroxybenzamide] was tested. Which “Intracellular protease activity Inhibition % 10 uM” value [1] did it give?
Answer: Its value is 71%.

Question: And the inhibition at 10 µM [1]?
Answer: The inhibition at 10 µM was 51 to 100%.

Question: What about the inhibition at 30 µM ([1]; 30 uM compound) of the same compound?
Answer: The inhibition at 30 µM was 95%.

Question: What about the inhibition at 100 µM [1] of the same compound?
Answer: Its inhibition at 100 µM is 99%.

Question: What about the inhibition at 0.8 µM [2, 3] of the same compound?
Answer: Its inhibition at 0.8 µM is 68%.

Question: Which inhibition at 30 µM ([1]; 30 uM compound) does the source give for O=C(Nc1nnc(C(F)(F)F)s1)c1cc(Cl)ccc1O [Example 28, 5-chloro-2-hydroxy-N-(5-trifluoromethyl-[1,3,4]thiadiazole-2-yl)-benzamide] here?
Answer: The inhibition at 30 µM was 75%.

Question: And the inhibition at 100 µM [1]?
Answer: The inhibition at 100 µM was 100%.

Question: What about the inhibition at 2 µM [2, 4] of the same compound?
Answer: The inhibition at 2 µM was 52%.

Question: O=C(Nc1cc(C(F)(F)F)cc(C(F)(F)F)c1)c1cc([N+](=O)[O-])ccc1O [Example 55, N-(3,5-bis(trifluoromethyl)phenyl)-2-hydroxy-5-nitrobenzamide] was tested. Which inhibition at 10 µM [1] did it give?
Answer: The inhibition at 10 µM was 33%.

Question: And the inhibition at 30 µM ([1]; 30 uM compound)?
Answer: Its inhibition at 30 µM is 78%.

Question: And the inhibition at 0.1 µM [2, 3]?
Answer: Its inhibition at 0.1 µM is 26%.
